According to patent US20220304997A1, “REBAMIPIDE FOR USE IN PROPHYLAXIS AND TREATMENT OF CANCER” (SQUARE POWER LTD., priority 2019, published 2022):

Test system: Male CD-1 mice
Test: DSS model combined with PhIP treatment (increased intestinal permeability, colitis and colon tumors)
Assay type: in vivo
Source text: To study the effect of rebamipide on increased intestinal permeability, colonic inflammation and cancer development, a DSS model combined with PhIP treatment was employed. Male CD-1 mice, divided into three groups, designated A to C, were used in the study. […] Subsequently, all animals were given inflammatory insult using 2% dextran sodium sulfate (DSS) in drinking water for 7 days, followed by 2-4 weeks of recovery period, during which mice were given untreated water. This cycle was repeated up to four times to induce increased intestinal permeability leading to severe colitis with loss of body weight and bloody diarrhea. Subsequently, majority of animals developed multiple colon tumors. Treatment with DSS (dextran sulfate sodium) induces increased intestinal permeability in mice by binding to medium-chain-length fatty acids present in the colon leading to development of inflammation and colitis. Besides that, the DSS administration leads to a long-term development of dysplasia and even colon cancer in some of the mice treated. PhIP treatment accelerates this process and further increases the incidence of colonic tumors. Another advantage of including PhIP in the protocol is that it allows reduction of the DSS dose in mice, and decreases the mortality from DSS-associated acute colitis. The carcinogenic process of the DSS/PhIP system has a pathological progression from normal intestinal crypts to the formation of foci harboring aberrant crypts with crypt fission and finally to the emergence of microadenomas. These steps recapitulate the sequence of colorectal cancer formation in humans from increased intestinal permeability and inflammation through dysplasia to carcinoma. Rebamipide treatment started four weeks prior to carcinogen administration and continued throughout the study. Groups A and B received rebamipide 50 mg/kg/day and 350 mg/kg/day, respectively. Rebamipide was applied within the standard daily feed or by gavage if needed. The treatment lasted for 20 weeks. […] [table] The observed parameters were as follows: • Number and size of tumors • Histological evaluation of the tumors • Weight loss • Colitis severity assessment • Gut permeability • Cytokines and related markers (IL-6, IL-10, IL-1b, TNFα, iNOS, IL-23p19, MCP 1, MIP 2, CXCL1) • Cell-cell adhesion proteins (Claudin 1, β catenin) • Expression of target genes

[1] = PhIP/DSS-treated mice, in comparison to untreated animals
[2] = groups A and B, rebamipide 50 mg/kg/day and 350 mg/kg/day, 20 weeks, vs untreated control group C, preliminary results

O=C(NC(Cc1cc(=O)[nH]c2ccccc12)C(=O)O)c1ccc(Cl)cc1 (stereo not drawn) [rebamipide, 2-[(4-chlorobenzoyl)amino]-3-(2-oxo-1H-quinolin-4-yl)propanoic acid]
intestinal inflammation [1]: suppresses intestinal inflammation
onset of the symptoms and markers corresponding to colon cancer [1]: preventing or at least delaying the onset
permeability of the gastrointestinal mucosa [1]: decrease in permeability
recovery from the DSS treatment (groups A and B, rebamipide 50 mg/kg/day and 350 mg/kg/day in feed or by gavage, 20 weeks, vs untreated control group C, preliminary results): recovered faster
incidence of tumors at the end of the study [2]: lower incidence
size of tumors at the end of the study [2]: lower incidence and size of tumors
